Results as given in publication PMC12041489 (Scientific Reports, 2025).
Entries after “also recorded” stand apart in the source; their conditions may differ. Where two headings read alike, the source gives them in different places. Blank lines part the entries; values can stand above or below the compound they belong to.

What was measured:
[1] = molecular target: T1, mushroom tyrosinase (Agaricus bisporus, UniProt C7FF04); conditions: read-out: Tyrosinase inhibitory activity IC50
[2] = molecular target: T1, mushroom tyrosinase; experiment: Tyrosinase kinetic analysis; assay type: biochemical
[3] = molecular target: tyrosinase (Agaricus bisporus, UniProt C7FF04); experiment: Fluorescence quenching of tyrosinase; assay type: binding, mushroom; conditions: for Kq / Ksv: λex 280 nm
Sequence of tyrosinase (C7FF04 1-392 limits assumed): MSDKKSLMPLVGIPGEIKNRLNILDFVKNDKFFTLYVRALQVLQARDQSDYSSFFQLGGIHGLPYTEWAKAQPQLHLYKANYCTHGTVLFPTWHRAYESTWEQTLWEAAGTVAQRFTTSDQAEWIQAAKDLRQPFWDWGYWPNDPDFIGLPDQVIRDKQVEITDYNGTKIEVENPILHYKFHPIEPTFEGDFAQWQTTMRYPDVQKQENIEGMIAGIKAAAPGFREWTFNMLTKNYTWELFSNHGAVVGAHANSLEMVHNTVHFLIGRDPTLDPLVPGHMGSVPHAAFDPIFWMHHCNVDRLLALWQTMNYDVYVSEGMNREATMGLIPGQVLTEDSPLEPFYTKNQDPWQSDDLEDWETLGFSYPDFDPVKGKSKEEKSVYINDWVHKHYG

[4] = tested on: fresh-cut apples; experiment: Anti-browning experiment on fresh-cut apples; set-up: species or system Fuji apples; conditions: stored at 5 °C for 4 days
[5] = DPPH free radical scavenging activity assay; conditions: read-out: DPPH radical scavenging IC50
[6] = ABTS radical cation scavenging activity assay; conditions: read-out: ABTS radical scavenging IC50
[7] = tested on: human umbilical vein endothelial cells (HUVEC); experiment: MTT assay for cell viability; assay type: cell-based; conditions: 24-h treatment, up to 32 µM
[8] = molecular target: T1, mushroom tyrosinase; experiment: biochemical

T1 sequence (C7FF04 1-392 limits assumed): as above

Structure (SMILES): CC(=O)c1cc(C)ccc1OCc1cn(Cc2cc(=O)c(O)co2)nn1 [Compound 13o, 2-((4-((2-acetyl-4-methylphenoxy)methyl)-1H-1,2,3-triazol-1-yl)methyl)-5-hy-droxy-4H-pyran-4-one]
- IC50 [1]: 1830 ± 42 nM

Structure (SMILES): CC(=O)c1ccc(Cl)cc1OCc1cn(Cc2cc(=O)c(O)co2)nn1 [Compound 13q, 2-((4-((2-acetyl-5–CHlorophenoxy)methyl)-1H-1,2,3-triazol-1-yl)methyl)-5-hy-droxy-4H-pyran-4-one]
- IC50 [1]: 3030 ± 59 nM

Structure (SMILES): O=c1cc(CO)occ1O [Kojic acid, kojic acid, reference compound]
- L* value of fresh-cut apples ([4]; 50 µM): 63.04

Structure (SMILES): O=C1O[C@H]([C@@H](O)CO)C(O)=C1O [Vc, ascorbic acid, reference compound]
- L* value of fresh-cut apples ([4]; 50 µM): 63.58

More lines, main results first:

- IC50 [1]: 1740 ± 48 nM
Structure (SMILES): CC(=O)c1ccc(OCc2cn(Cc3cc(=O)c(O)co3)nn2)c(C)c1 [Compound 13e, 2-((4-((4-acetyl-2-methylphenoxy)methyl)-1H-1,2,3-triazol-1-yl)methyl)-5-hydr-oxy-4H-pyran-4-one]

- IC50 [1]: 2817 ± 7 nM
Structure (SMILES): COc1ccc(C=O)c(OCc2cn(Cc3cc(=O)c(O)co3)nn2)c1 [Compound 13j, 2-((1-((5-hydroxy-4-oxo-4H-pyran-2-yl)methyl)-1H-1,2,3-triazol-4-yl)methox-y)-4-methoxybenzaldehyde]

- IC50 [1]: 6818 ± 27 nM
Structure (SMILES): CC(=O)c1ccc(C)cc1OCc1cn(Cc2cc(=O)c(O)co2)nn1 [Compound 13n, 2-((4-((2-acetyl-5-methylphenoxy)methyl)-1H-1,2,3-triazol-1-yl)methyl)-5-hy-droxy-4H-pyran-4-one]

- IC50 [1]: 3320 ± 57 nM
Structure (SMILES): CC(=O)c1ccc(Br)cc1OCc1cn(Cc2cc(=O)c(O)co2)nn1 [Compound 13r, 2-((4-((2-acetyl-5-bromophenoxy)methyl)-1H-1,2,3-triazol-1-yl)methyl)-5-hy-droxy-4H-pyran-4-one]

- IC50 [1]: 2580 ± 49 nM
Structure (SMILES): CC(=O)c1ccc(F)cc1OCc1cn(Cc2cc(=O)c(O)co2)nn1 [Compound 13s, 2-((4-((2-acetyl-5-fluorophenoxy)methyl)-1H-1,2,3-triazol-1-yl)methyl)-5-hy-droxy-4H-pyran-4-one]

- Ki [2]: 365 nM
- inhibition type ([2]; Lineweaver–Burk double reciprocal plots): mixed-type inhibitor
- predominant quenching mechanism ([3]; Stern-Volmer plots at 298, 303 and 310 K): dynamic quenching
- Kq ([3]; T 298 K): 1.952e+12 M⁻¹ s⁻¹
- Ksv ([3]; T 298 K): 0.01952 L/µmol
- Kq ([3]; T 303 K): 2.478e+12 M⁻¹ s⁻¹
- Ksv ([3]; T 303 K): 0.02478 L/µmol
- Kq ([3]; T 310 K): 2.823e+12 M⁻¹ s⁻¹
- Ksv ([3]; T 310 K): 0.02823 L/µmol
- IC50 [5]: 57900 ± 280 nM
- IC50 [6]: 45640 ± 250 nM
- IC50 [8]: 1363 ± 3 nM
Structure (SMILES): COc1ccc(C(C)=O)c(OCc2cn(Cc3cc(=O)c(O)co3)nn2)c1 [Compound 13t, 2-((4-((2-acetyl-5-methoxyphenoxy)methyl)-1H-1,2,3-triazol-1-yl)methyl)-5-hydroxy-4H-pyran-4-one]
- L* value of fresh-cut apples ([4]; 25 µM): 65.91
- L* value of fresh-cut apples ([4]; 50 µM): 66.59
- L* value of fresh-cut apples ([4]; 100 µM): 67.87
- toxicity to HUVEC (cell viability) [7]: no discernible toxicity; also recorded: no evident toxicity
